{"source": "patent US11767330B2", "about": "“Citrate salt, pharmaceutical compositions, and methods of making and using the same” (Foghorn Therapeutics Inc., priority 2021, dated 2023)", "assay": "Tolerability by % body weight change (Example 11)", "type": "in vivo", "conditions": "1 mg/kg, i.p., daily, 3 weeks", "procedure": "Method: NOD SCID mice (Beijing Anikeeper Biotech, Beijing) were inoculated subcutaneously on the right flank with the single cell suspension of SYO-1 human biphasic synovial sarcoma tumor cells (5×106) in 100 μL Dulbecco's Modified Eagle Medium (DMEM) with 10% fetal bovine serum (FBS). The mice were randomized into either control group [10% dimethyl sulfoxide (DMSO), 40% polyethylene glycol (PEG400) and 50% water], or treatment group D1 when the mean tumor size reached about 117 mm^3. Mice were dosed daily through intraperitoneal (i.p.) route over the course of 3 weeks. All dose volumes were adjusted by body weights in terms of mg/kg."}
{"smiles": "COc1cc(-c2cn(C)c(=O)c3cnc(N4CCC4)cc23)cc(OC)c1CN1CCC(CN2CCC3(CC2)CN(c2ccc4c(c2)C(=O)N(C2CCC(=O)NC2=O)C4)C3)CC1", "note": "(racemic) [Compound D1, 3-[6-(7-[[1-([4-[6-(azetidin-1-yl)-2-methyl-1-oxo-2,7-naphthyridin-4-yl]-2,6-dimethoxyphenyl]methyl)piperidin-4-yl]methyl]-2,7-diazaspiro[3.5]nonan-2-yl)-1-oxo-3H-isoindol-2-yl]piperidine-2,6-dione]", "values": [{"measurement": "tolerability based on % body weight change", "value": "well tolerated"}]}
